Assay results from patent US5773446A, “Diamino pyrimidines” (Hoffmann-La Roche Inc., priority 1995, dated 1998).

Tests used:
[1] = target: T1, purified DHFR of the opportunistic pathogen P. carinii (Pneumocystis carinii, UniProt P16184); assay: biochemical
T1 sequence (P16184 1-206): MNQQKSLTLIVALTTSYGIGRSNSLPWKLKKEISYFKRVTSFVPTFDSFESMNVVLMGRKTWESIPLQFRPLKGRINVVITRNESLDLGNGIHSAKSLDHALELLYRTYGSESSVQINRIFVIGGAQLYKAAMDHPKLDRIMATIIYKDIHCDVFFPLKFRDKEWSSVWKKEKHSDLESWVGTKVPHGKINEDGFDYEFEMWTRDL
Source text: (§1) The inhibition of this enzyme was taken as a measurement for the antibacterial activity.

[2] = target: purified DHFR of the reference strain S. aureus ATCC 25923 (Staphylococcus aureus, UniProt P0A017); assay: Inhibition of purified DHFR of reference strain S. aureus ATCC 25923; type: biochemical
purified DHFR of the reference strain S. aureus ATCC 25923, sequence (P0A017 whole entry): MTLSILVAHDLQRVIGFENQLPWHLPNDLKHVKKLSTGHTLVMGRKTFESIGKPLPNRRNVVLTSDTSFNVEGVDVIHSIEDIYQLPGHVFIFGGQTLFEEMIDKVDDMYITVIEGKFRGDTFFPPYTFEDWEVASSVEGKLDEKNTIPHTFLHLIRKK
Source text: as §1

Structure (SMILES) | IC50 [1] [nM] | IC50 [2] [nM]
COc1cc(Cc2cnc(N)nc2N)c2c(c1OC)OC(CCCC(=O)O)C=C2 (racemic) [Example 6, (RS)-4-[5-(2,4-diamino-pyrimidin-5-ylmethyl)-7,8-dimethoxy-2H-1-benzopyran-2-yl]-butyric acid] | 220 | 5
CCCCCC1C=Cc2c(Cc3cnc(N)nc3N)cc(OC)c(OC)c2O1 (racemic) [Example 7, (RS)-5-(7,8-dimethoxy-2-pentyl-2H-1-benzopyran-5-ylmethyl)-pyrimidine-2,4-diamine] | 2800 | 16
COc1cc(Cc2cnc(N)nc2N)c2c(c1OC)OC(C(C)C)C=C2 (racemic) [Example 8, (RS)-5-(2-isopropyl-7,8-dimethoxy-2H-1-benzopyran-5-ylmethyl)-pyrimidine-2,4-diamine] | 1000 | 1
COc1cc(Cc2cnc(N)nc2N)c2c(c1OC)OC(CC(C)C)C=C2 (racemic) [Example 9, (RS)-5-(2-isobutyl-7,8-dimethoxy-2H-1-benzopyran-5-ylmethyl)-pyrimidine-2,4-diamine] | 3000 | 1
COc1c(OCCCC(=O)O)cc(Cc2cnc(N)nc2N)c2c1OCC=C2 [Example 10, 4-[5-(2,4-diamino-pyrimidin-5-ylmethyl)-8-methoxy-2H-1-benzopyran-7-yloxy]-butyric acid] | 40 | 5
